Experimental data as given in patent US4547502A, “Dihydropyridines and their use in treating cardiac conditions and hypertension” (Pfizer Inc., priority 1982, dated 1985).

System: spirally cut strips of rat aorta
Experiment: Inhibition of calcium-induced contraction of isolated rat aorta strips (concentration required to reduce the response by 50%)
Type: cell-based
Settings: 0.75 h, in vitro, 45 millimolar potassium, contraction by calcium chloride, final calcium 2 millimolar, retest after 45 minutes with compound present, read-out: IC50 (molar concentration of the compounds required to reduce the response by 50%)
Protocol: The ability of the compounds to inhibit the movement of calcium into the cell is shown by their effectiveness in reducing the response of isolated […] to an increase in calcium ion concentration in vitro. The test is performed by mounting spirally cut strips of rat aorta with one end fixed and the other attached to a force tranducer. The tissue is immersed in a bath of physiological saline solution containing potassium ions at a concentration of 45 millimolar and no calcium. Calcium chloride is added to the bath with a pipette to give a final calcium ion concentration of 2 millimolar. The change in tension caused by the resulting contraction of the tissue is noted. The bath is drained and replaced with fresh saline solution and, after 45 minutes, the test is repeated with the particular compound under test present in the saline solution. The concentration of compound required to reduce the response by 50% is recorded.

Row | SMILES | IC50 [nM]
1 | CCOC(=O)C1=C(COCCN2CCN(c3nc(N)nn3C)CC2)NC(C)=C(C(=O)OC)C1c1ccccc1Cl (single isomer, unassigned) [Example 6 (more polar isomer), 2-[2-(4-{3-amino-1-methyl-1,2,4-triazol-5-yl}-piperazin-1-yl)ethoxymethyl]-4-(2-chlorophenyl)-3-ethoxycarbonyl-5-methoxycarbonyl-6-methyl-1,4-dihydropyridine hemihydrate] | 100
2 | CCOC(=O)C1=C(COCCN2CCN(c3nc(N)n(C)n3)CC2)NC(C)=C(C(=O)OC)C1c1ccccc1Cl (stereo not drawn) [Example 6 (least polar isomer), 2-[2-(4-{5-amino-1-methyl-1,2,4-triazol-3-yl}-piperazin-1-yl)ethoxymethyl]-4-(2-chlorophenyl)-3-ethoxycarbonyl-5-methoxycarbonyl-6-methyl-1,4-dihydropyridine] | 26
3 | CCOC(=O)C1=C(COCCN2CCN(c3nccc(=O)[nH]3)CC2)NC(C)=C(C(=O)OC)C1c1ccccc1Cl (stereo not shown) [Example 3] | 36
4 | CCOC(=O)C1=C(COCCN2CCN(c3nc(N)n[nH]3)CC2)NC(C)=C(C(=O)OC)C1c1ccccc1Cl (stereo not shown) [Example 5, 2-{2-[4-(5-Amino-1,2,4-triazol-3-yl)piperazine-1-yl]ethoxymethyl}-4-(2-chlorophenyl)-3-ethoxycarbonyl-5-methoxycarbonyl-6-methyl-1,4-dihydropyridine, bis-maleate hemihydrate] | 38
5 | CCOC(=O)C1=C(COCCN2CCN(C3=NCCN3)CC2)NC(C)=C(C(=O)OC)C1c1ccccc1Cl (stereo not shown) [Example 2] | 100
6 | CCOC(=O)C1=C(COCCN2CCN(C3=NCCC3)CC2)NC(C)=C(C(=O)OC)C1c1ccccc1Cl (stereo not shown) [Example 1, 2-[2-(4-(1-Pyrrolin-2-yl)-piperazin-1-yl)ethoxymethyl]-4-(2-chlorophenyl)-3-ethoxycarbonyl-5-methoxycarbonyl-6-methyl-1,4-dihydropyridine] | 141
7 | CCOC(=O)C1=C(COCCN2CCN(c3nccs3)CC2)NC(C)=C(C(=O)OC)C1c1ccccc1Cl (stereo not shown) [Example 4] | 15
